For 2 compounds, IC50 results are on record in US20040235908A1, “3,4-Di-substituted cyclobutene-1,2-diones as CXC-chemokine receptor antagonists” (Schering Corporation, priority 2001, published 2004).

The target of this experiment is T1, hCXCR2 (Homo sapiens, UniProt P25025).
T1 construct: purchased Biosignal; host or cells: CHO cells overexpressing hCXCR2 (membrane preparation)
T1 sequence (P25025 1-360): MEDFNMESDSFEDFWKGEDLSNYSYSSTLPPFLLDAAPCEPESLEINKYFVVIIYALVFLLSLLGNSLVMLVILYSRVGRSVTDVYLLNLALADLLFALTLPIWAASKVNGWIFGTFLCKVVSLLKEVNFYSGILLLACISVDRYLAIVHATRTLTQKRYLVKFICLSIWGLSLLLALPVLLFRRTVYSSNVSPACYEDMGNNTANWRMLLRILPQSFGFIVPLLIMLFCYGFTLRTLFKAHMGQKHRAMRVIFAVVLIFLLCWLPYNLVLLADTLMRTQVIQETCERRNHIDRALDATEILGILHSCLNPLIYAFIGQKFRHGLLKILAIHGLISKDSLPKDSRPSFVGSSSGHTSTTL
The experiment is described as follows: CXCR2 SPA receptor binding assay. As to conditions: hCXCR2-CHO overexpressing membranes, [125I]-IL-8 ligand 0.1 nM. As for the experimental part: For each well of a 96 well plate, a reaction mixture of 4 μg hCXCR2-CHO overexpressing membranes (Biosignal) and 200 μg/well WGA-SPA beads (Amersham) in 100 μl was prepared in CXCR2 assay buffer (25 mM HEPES, pH 7.4, 2 mM CaCl2, 1 mM MgCl2). A 0.4 nM stock of ligand, [125I]-IL-8 (NEN), was prepared in the CXCR2 assay buffer. […] stock solutions of test compounds were prepared in DMSO (Sigma). A 6× stock solution of GRO-α (R&D) was prepared in CXCR2 assay buffer. The above solutions were added to a 96-well assay plate (PerkinElmer or Coming) as follows: 10 μl test compound or DMSO, 40 ul CXCR2 assay buffer or GRO-α stock, 100 μl of reaction mixture, 50 μl of ligand stock (Final [Ligand]=0.1 nM). When 40× stock solutions of test compounds in DMSO were prepared, then the above protocol was used except instead 5 μl test compound or DMSO and 45 μl CXCR2 assay buffer were used. The assay plates were shaken for 5 minutes on a plate shaker, then incubated for 2-8 hours before cpm/well were determined in Microbeta Trilux counter (PerkinElmer). % Inhibition of total binding minus non-specific binding (250 nM Gro-α or 50 μM antagonist) was determined and IC50 values calculated.

As a reminder, the IC50 is the point on the concentration scale where inhibition reaches its midpoint. Low values mean greater potency in that assay, high ones weaker potency in that assay.

Regarding `O=C(c1cccc(Nc2c(Nc3ccccc3)c(=O)c2=O)c1O)N1CCOCC1` [Example 45], the IC50 turned out to be 10 nM. Regarding `CC(C)c1ccccc1Nc1c(Nc2cccc(C(=O)N(C)C)c2O)c(=O)c1=O` [Example 64], the half-inhibitory concentration (IC50) turned out to be 28 nM.
